The record followed here is patent US20230113037A1 (Bayer Aktiengesellschaft, priority 2019, published 2023).

Experiment [1] deals with T1, AHR (Mus musculus, UniProt P30561).
T1 sequence (P30561 1-848 P471L/N533S/M589L): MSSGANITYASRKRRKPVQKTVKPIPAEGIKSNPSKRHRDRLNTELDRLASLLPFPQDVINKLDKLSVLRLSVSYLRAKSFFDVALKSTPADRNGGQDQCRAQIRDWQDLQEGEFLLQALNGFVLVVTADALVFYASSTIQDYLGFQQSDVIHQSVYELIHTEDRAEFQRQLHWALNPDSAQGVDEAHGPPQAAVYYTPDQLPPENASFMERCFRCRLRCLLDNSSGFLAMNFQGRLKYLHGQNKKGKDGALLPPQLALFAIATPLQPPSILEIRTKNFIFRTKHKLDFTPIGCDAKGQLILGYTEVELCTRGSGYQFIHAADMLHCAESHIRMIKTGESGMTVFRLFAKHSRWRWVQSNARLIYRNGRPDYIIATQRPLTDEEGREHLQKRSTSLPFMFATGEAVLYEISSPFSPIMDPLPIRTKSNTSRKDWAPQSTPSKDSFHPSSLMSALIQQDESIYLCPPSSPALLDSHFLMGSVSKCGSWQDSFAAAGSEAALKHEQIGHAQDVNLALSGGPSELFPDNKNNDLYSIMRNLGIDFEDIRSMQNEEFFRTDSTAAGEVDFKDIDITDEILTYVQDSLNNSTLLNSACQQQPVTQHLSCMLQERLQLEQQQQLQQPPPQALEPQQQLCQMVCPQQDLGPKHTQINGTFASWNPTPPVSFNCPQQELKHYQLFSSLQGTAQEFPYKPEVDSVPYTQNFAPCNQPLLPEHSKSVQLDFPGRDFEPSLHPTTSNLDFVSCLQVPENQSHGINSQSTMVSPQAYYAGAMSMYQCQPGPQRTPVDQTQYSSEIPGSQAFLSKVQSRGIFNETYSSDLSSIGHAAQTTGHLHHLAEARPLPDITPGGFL
The experiment in a line: In vitro assay 3: antagonism in mouse cell line (AHR transactivation, firefly luciferase reporter, kynurenic acid prestimulated). Type of experiment: cell-based. In a few lines: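 Antagonism read as reduced firefly luciferase signal (SteadyGlo) from a stably transfected AHR/DRE reporter in a mouse line prestimulated with kynurenic acid. Data normalized to controls, the full-inhibition control being cells without kynurenic acid; multiple determinations given as average or median values.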
A general note: Reporter assays use an easily measured gene product as a stand-in for the process of interest.

The target of experiment [2] is T2, AHR (Homo sapiens, UniProt P35869).
T2 construct: U87 MG glioblastoma cells (ATCC #HTB-14) endogenously expressing AHR; endogenous in cells; host or cells: U87 MG glioblastoma cells (ATCC #HTB-14)
T2 sequence (P35869 11-848): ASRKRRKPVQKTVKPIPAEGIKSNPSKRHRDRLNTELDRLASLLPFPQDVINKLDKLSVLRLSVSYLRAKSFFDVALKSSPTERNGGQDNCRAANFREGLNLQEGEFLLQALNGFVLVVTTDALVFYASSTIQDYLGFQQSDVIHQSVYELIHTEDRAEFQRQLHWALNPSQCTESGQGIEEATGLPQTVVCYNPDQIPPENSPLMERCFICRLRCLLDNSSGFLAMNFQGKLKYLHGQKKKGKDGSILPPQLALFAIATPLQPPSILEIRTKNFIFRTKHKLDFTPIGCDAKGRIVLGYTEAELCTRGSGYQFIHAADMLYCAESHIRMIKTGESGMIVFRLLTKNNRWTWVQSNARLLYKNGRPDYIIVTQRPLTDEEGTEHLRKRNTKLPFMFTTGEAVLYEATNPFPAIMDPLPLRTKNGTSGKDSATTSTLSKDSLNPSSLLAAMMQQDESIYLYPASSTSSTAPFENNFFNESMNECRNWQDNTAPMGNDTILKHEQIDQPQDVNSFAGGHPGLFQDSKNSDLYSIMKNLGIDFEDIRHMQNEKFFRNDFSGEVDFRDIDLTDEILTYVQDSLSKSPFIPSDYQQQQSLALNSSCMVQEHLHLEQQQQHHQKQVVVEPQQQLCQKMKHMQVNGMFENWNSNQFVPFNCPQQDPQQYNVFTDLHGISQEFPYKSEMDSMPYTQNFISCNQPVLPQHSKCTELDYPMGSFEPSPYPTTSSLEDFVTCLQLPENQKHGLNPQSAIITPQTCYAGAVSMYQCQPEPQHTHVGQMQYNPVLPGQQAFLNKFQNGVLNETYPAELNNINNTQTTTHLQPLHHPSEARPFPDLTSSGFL
In words: In vitro assay 1: antagonism in human cell line (AHR transactivation, firefly luciferase reporter, kynurenic acid prestimulated). In kind it is cell-based. To be noted: AHR Antagonism Human IC50 [M]. In a few lines:
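Antagonism is measured against kynurenic acid prestimulation in U87 MG glioblastoma cells carrying stable DRE-luciferase and Renilla reporters. Positive inhibition control: 150 μM kynurenic acid with 5 μM staurosporine. Values are normalized to controls; repeats are averaged or given as medians.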

Where [3] appears, read: mouse Hepa 1c1c7 cells, 200 μM kynurenic acid, 20 hours, read-out: AHR Antagonism Mouse IC50.
[4] abbreviates: Hepa 1c1c7 cells, 200 μM kynurenic acid, 20 hours, firefly luciferase reporter, read-out: AHR Antagonism Mouse IC50.

Like-named read-outs stand apart in the source and are kept apart here.

As to `Cc1cccc2nc(N[C@@H]3CCCCNC3=O)n3nc(-c4cnn(C)c4)nc3c12` [Example 183, (3R)-3-{[10-methyl-2-(1-methyl-1H-pyrazol-4-yl)[1,2,4]triazolo[1,5-c]quinazolin-5-yl]amino}azepan-2-one], the 50% inhibitory concentration (IC50) (as a rule, the concentration at which inhibition is half-maximal) came out at 0.453 µM at AHR [1] (setting [3]) and 2.48e-08 M against AHR [2].

As for `CSc1ccc(-c2nc3c4ccccc4nc(N[C@@H]4CCCCNC4=O)n3n2)cc1` [Example 202, (3R)-3-({2-[4-(methylsulfanyl)phenyl][1,2,4]triazolo[1,5-c]quinazolin-5-yl}amino)azepan-2-one], the results for the IC50 on AHR [1] (setting [3]) and on AHR [2] were 0.000657 µM and 5.17e-10 M, respectively.

For the molecule `O=C1NCCCC[C@H]1Nc1nc2ccccc2c2nc(-c3cccnc3C(F)(F)F)nn12` [Example 488, (3R)-3-({2-[2-(trifluoromethyl)pyridin-3-yl][1,2,4]triazolo[1,5-c]quinazolin-5-yl}amino)azepan-2-one], the IC50 on AHR [1] (setting [3]) is 0.0123 µM; on AHR [2], 6.4e-08 M.

Take `N#Cc1ccc(-c2nc3c4ccccc4nc(N[C@@H]4CCCNC4=O)n3n2)cc1` [Example 389, 4-(5-{[(3R)-2-oxopiperidin-3-yl]amino}[1,2,4]triazolo[1,5-c]quinazolin-2-yl)benzonitrile]: the IC50 on AHR [1] (setting [3]) was determined as 0.0267 µM; on AHR [2], 1.76e-08 M.

Turning to `COc1cccc(-c2nc3c4cc(F)ccc4nc(NC4CCNC4=O)n3n2)c1` (single isomer, unassigned) [Example 187, 3-{[9-fluoro-2-(3-methoxyphenyl)[1,2,4]triazolo[1,5-c]quinazolin-5-yl]amino}pyrrolidin-2-one], the IC50 on AHR [1] (setting [3]) worked out at 0.321 µM; against AHR [2], 6.04e-08 M.

As for `Cc1ccc2nc(N[C@@H]3CCCCNC3=O)n3nc(-c4cnn(C)c4)nc3c2c1` [Example 158, (3R)-3-{[9-methyl-2-(1-methyl-1H-pyrazol-4-yl)[1,2,4]triazolo[1,5-c]quinazolin-5-yl]amino}azepan-2-one], the IC50 is 0.0322 µM on AHR [1] (setting [3]) and 1.77e-08 M against AHR [2].

Regarding `CC[C@@H](Nc1nc2ccccc2c2nc(-c3ccc(OC)cc3C(F)(F)F)nn12)C(N)=O` [Example 515, (2R)-2-({2-[4-methoxy-2-(trifluoromethyl)phenyl][1,2,4]triazolo[1,5-c]quinazolin-5-yl}amino)butanamide], the IC50 at AHR [1] (setting [3]) was 0.00206 µM; against AHR [2], 3.17e-08 M.

For the molecule `COc1cscc1-c1nc2c3ccccc3nc(N[C@@H]3CCCCNC3=O)n2n1` [Example 333, (3R)-3-{[2-(4-Methoxythiophen-3-yl)[1,2,4]triazolo[1,5-c]quinazolin-5-yl]amino}azepan-2-one], the IC50 worked out at 0.028 µM on AHR [1] (setting [3]) and 2.74e-08 M against AHR [2].

For `CC(C)[C@@H](Nc1nc2c(Br)cccc2c2nc(-c3cnn(C)c3)nn12)C(N)=O` [Example 578, N^2-[7-bromo-2-(1-methyl-1H-pyrazol-4-yl)[1,2,4]triazolo[1,5-c]quinazolin-5-yl]-D-valinamide], the IC50 came out at 0.00291 µM at AHR [1] (setting [3]) and 1.25e-08 M at AHR [2].

In the case of `CC[C@@H](Nc1nc2ccccc2c2nc(-c3ccncc3F)nn12)C(N)=O` [Example 484, (2R)-2-{[2-(3-fluoropyridin-4-yl)[1,2,4]triazolo[1,5-c]quinazolin-5-yl]amino}butanamide], the figures for the IC50 at AHR [1] (setting [3]) and at AHR [2] were 0.0276 µM and 9.06e-08 M, respectively.

With `N#Cc1ccc(-c2nc3c4cccc(Br)c4nc(N[C@@H]4CCCCNC4=O)n3n2)cc1` [Example 558, 4-(7-bromo-5-{[(3R)-2-oxoazepan-3-yl]amino}[1,2,4]triazolo[1,5-c]quinazolin-2-yl)benzonitrile], the values for the IC50 on AHR [1] (setting [3]) and against AHR [2] were 0.000276 µM and 5.96e-09 M, respectively.

On to `CC[C@@H](Nc1nc2ccccc2c2nc(-c3ccc(Cl)cc3OC(F)(F)F)nn12)C(N)=O` [Example 523, (2R)-2-({2-[4-chloro-2-(trifluoromethoxy)phenyl][1,2,4]triazolo[1,5-c]quinazolin-5-yl}amino)butanamide], for which the IC50 came out at 0.00084 µM on AHR [1] (setting [3]) and 4.99e-09 M against AHR [2].

With `CS(=N)(=O)c1cccc(-c2nc3c4ccccc4nc(N[C@@H]4CCCCNC4=O)n3n2)c1` (single isomer, unassigned) [Example 660], the IC50 at AHR [1] (setting [3]) is 0.927 µM; against AHR [2], 8.48e-07 M.

Consider `O=C1NCCC[C@H]1Nc1nc2ccccc2c2nc(-c3ccc(Cl)cc3OC(F)(F)F)nn12` [Example 519, (3R)-3-({2-[4-chloro-2-(trifluoromethoxy)phenyl][1,2,4]triazolo[1,5-c]quinazolin-5-yl}amino)piperidin-2-one], for which the IC50 on AHR [1] (setting [3]) amounted to 0.0222 µM; on AHR [2], 3.65e-08 M.

With `CCn1cc(-c2nc3c4ccccc4nc(N[C@@H]4CCCCNC4=O)n3n2)cn1` [Example 67], the IC50 came out at 0.00553 µM at AHR [1] (setting [3]) and 6.43e-09 M at AHR [2].

`Nc1cccc(-c2nc3c4ccccc4nc(N[C@@H]4CNCCNC4=O)n3n2)c1` [Example 413, (6R)-6-{[2-(3-aminophenyl)[1,2,4]triazolo[1,5-c]quinazolin-5-yl]amino}-1,4-diazepan-5-one]: the results for the IC50 at AHR [1] (setting [3]) and at AHR [2] were 0.0621 µM and 8.94e-08 M, respectively.

Take `C[C@@H](Nc1nc2c(C(F)(F)F)cccc2c2nc(-c3cnn(C)c3)nn12)C(=O)N(C)CCN(C)C` [Example 877, N-[2-(dimethylamino)ethyl]-N-methyl-N^2-[2-(1-methyl-1H-pyrazol-4-yl)-7-(trifluoromethyl)[1,2,4]triazolo[1,5-c]quinazolin-5-yl]-D-alaninamide]: the IC50 amounted to 0.16 µM on AHR [1] (setting [4]) and 8.72e-08 M on AHR [2] (firefly luciferase reporter).

In the case of `Cc1c(-c2nc3c4cccc(Br)c4nc(N[C@@H]4CNCCNC4=O)n3n2)cnn1C` [Example 979, (6R)-6-{[7-bromo-2-(1,5-dimethyl-1H-pyrazol-4-yl)[1,2,4]triazolo[1,5-c]quinazolin-5-yl]amino}-1,4-diazepan-5-one], the IC50 at AHR [1] (setting [4]) was 0.0105 µM; against AHR [2] (firefly luciferase reporter), 2.13e-08 M.

Consider `O=C1NCCCC[C@@H]1Nc1nc2ccccc2c2nc(-c3cccc(F)c3)nn12` [Example 10, (3S)-3-{[2-(3-fluorophenyl)[1,2,4]triazolo[1,5-c]quinazolin-5-yl]amino}azepan-2-one], for which the IC50 at AHR [1] (read-out: AHR Antagonism Mouse IC50, mouse Hepa 1c1c7 cells, 200 μM kynurenic acid, 20 hours) was 0.00793 µM; against AHR [2] it was 2.71e-08 M.

With `O=C1NCCCC[C@H]1Nc1nc2c(C(F)(F)F)cccc2c2nc(-c3cnn(CC4CCC4)c3)nn12` [Example 744, (3R)-3-({2-[1-(cyclobutylmethyl)-1H-pyrazol-4-yl]-7-(trifluoromethyl)[1,2,4]triazolo[1,5-c]quinazolin-5-yl}amino)azepan-2-one], the IC50 came to 0.0116 µM on AHR [1] (setting [3]) and 1.69e-09 M at AHR [2].

`O=C1NCCCC[C@H]1Nc1nc2ccccc2c2nc(-c3cncc(Cl)c3)nn12` [Example 480, (3R)-3-{[2-(5-chloropyridin-3-yl)[1,2,4]triazolo[1,5-c]quinazolin-5-yl]amino}azepan-2-one]: the IC50 on AHR [1] (setting [3]) amounted to 0.0148 µM; at AHR [2] it was 2.07e-08 M.
